Values quoted from earlier work as cited in article PMC6311893, “Computational prediction of plasma protein binding of cyclic peptides from small molecule experimental data using sparse modeling techniques” (BMC Bioinformatics, 2018).
Like-named read-outs stand apart in the source and are kept apart here.

Test system: plasma protein
Conditions: cited from earlier work
[1] = fraction bound to plasma protein, small molecule dataset, sheet 1-SM, ref Ingle et al.
[2] = fraction bound to plasma protein, small molecule dataset, sheet 1-SM (Set Dte = test, Dtr = training), ref Ingle et al.
[3] = fraction bound to plasma protein, small molecule dataset, sheet 1-SM, Set Dtr, ref Ingle et al.

## Nc1c2c(nc3ccccc13)CCCC2 [Tacrine]
plasma
  PPB (fb): 0.65

## acenocoumarol
plasma
  PPB (fb): 0.98

## CN(CCOc1ccc(CC2SC(=O)NC2=O)cc1)c1ccccn1 (centres unmarked) [Rosiglitazone]
[1]
  PPB (fb): 0.99

## COCC(=O)NC1C(=O)N2C1SC(C)(C)C2C(=O)O (centres unmarked) [penicillin5]
[1]
  PPB (fb): 0.07

## OC(O)C(Cl)(Cl)Cl [chloral-hydrate]
plasma
  PPB (fb): 0.35

## C=CCC1(C(C)C#CCC)C(=O)N=C(O)N(C)C1=O (centres unmarked) [Methohexital]
plasma
  PPB (fb): 0.75

## CC(NCCc1ccc(O)cc1)C(O)c1ccc(O)cc1 (centres unmarked) [Ritodrine]
[1]
  PPB (fb): 0.33

## CCCC(C)(COC(N)=O)COC(=O)NC(C)C (centres unmarked) [carisoprodol]
plasma
  PPB (fb): 0.58

## NC(=O)c1ncn([C@@H]2O[C@H](CO)[C@@H](O)[C@H]2O)n1 [Ribavirin]
[1]
  PPB (fb): 0.02

## O=[N+]([O-])OCC(CO[N+](=O)[O-])O[N+](=O)[O-] [nitroglycerin]
plasma
  PPB (fb): 0.6

## CC12CC(=O)C3C(CCC4CC(O)CCC43C)C1CCC2C(=O)CO (centres unmarked) [alfadolone]
[2]
  PPB (fb): 0.3

## O=C(c1ccccc1)c1ccc2n1CCC2C(=O)O (centres unmarked) [Ketorolac]
[3]
  PPB (fb): 0.99

## Cc1ccc(NC(=O)c2ccc(CN3CCNCC3)cc2)cc1Nc1nccc(-c2cccnc2)n1 [N-desmethyl-imatinib]
[2]
  PPB (fb): 0.7

## Cc1ncc(CO)c(CO)c1O [pyridoxine]
[1]
  PPB (fb): 0

## COC(=O)[C@@H]1CC2=CC(=O)CC[C@]2(C)[C@@]23O[C@@H]2C[C@@]2(C)[C@@H](CC[C@@]24CCC(=O)O4)[C@H]13 [eplerenone]
[1]
  PPB (fb): 0.46

## CC(CN(C)C)CN1c2ccccc2Sc2ccccc21 (centres unmarked) [trimeprazine]
[3]
  PPB (fb): 0.85

## NS(=O)(=O)c1ccc(S(=O)(=O)Nc2cccc3c(Cl)c[nH]c23)cc1 [indisulam]
[1]
  PPB (fb): 0.98

## Cc1ncc([N+](=O)[O-])n1CC(O)CCl (centres unmarked) [ornidazole]
[1]
  PPB (fb): 0.15

## O=C(O)CCCc1ccc(N(CCCl)CCCl)cc1 [Chlorambucil]
plasma
  PPB (fb): 0.99

## COC1/C=C/OC2(C)Oc3c(C)c(O)c4c(O)c(c(/C=N/N5CCN(C6CCCC6)CC5)c(O)c4c3C2=O)NC(=O)/C(C)=C\C=C\C(C)C(O)C(C)C(O)C(C)C(O)C1C (centres unmarked) [25-desacetylrifapentine]
[2]
  PPB (fb): 0.98

## CC1(C)SC2C(NC(=O)c3ccccc3-c3ccccc3)C(=O)N2C1C(=O)O (centres unmarked) [penicillin16]
[1]
  PPB (fb): 0.91

## O=C(N[C@H](CO)[C@H](O)c1ccc([N+](=O)[O-])cc1)C(Cl)Cl [Chloramphenicol]
[3]
  PPB (fb): 0.61

## CN1CCc2cccc3c2[C@H]1Cc1ccc(O)c(O)c1-3 [Apomorphine]
[3]
  PPB (fb): 0.94

## Nc1ccc(S(=O)(=O)c2ccc(N)cc2)cc1 [Dapsone]
[3]
  PPB (fb): 0.75

## CN1C(=O)CN=C(c2ccccc2F)c2cc([N+](=O)[O-])ccc21 [Flunitrazepam]
plasma
  PPB (fb): 0.81

## CC(C)(Oc1ccc(CCNC(=O)c2ccc(Cl)cc2)cc1)C(=O)O [bezafibrate]
[2]
  PPB (fb): 0.95

## O=C(O)C(=O)O [oxalic acid]
[1]
  PPB (fb): 0

## OCc1cc(C(O)CNCCCCCCOCCCCc2ccccc2)ccc1O (centres unmarked) [salmeterol]
[1]
  PPB (fb): 0.96

## CCN(CC)CCOC(=O)C(Cc1cccc2ccccc12)CC1CCCO1 (centres unmarked) [nafronyl]
[1]
  PPB (fb): 0.9

## CCCC(CCC)C(=O)O [Valproic Acd]
[1]
  PPB (fb): 0.9

## CC(Oc1ccccc1Cl)C(=O)NC1C(=O)N2C1SC(C)(C)C2C(=O)O (centres unmarked) [penicillin55]
[1]
  PPB (fb): 0.96

## O=C1CCC(Cc2ccc(O)c(O)c2)O1 (centres unmarked)
[2]
  PPB (fb): 0.35

## CCn1cc(C(=O)O)c(=O)c2ccc(C)nc21 [nalidixic acid]
[1]
  PPB (fb): 0.94

## CCC(O)(C(=O)O)c1cc2n(c(=O)c1CO)Cc1cc3c(CN(C)C)c(O)ccc3nc1-2 (centres unmarked) [Topotecan Carboxylic Acid]
[3]
  PPB (fb): 0.07

## Cefmetazole
plasma
  PPB (fb): 0.77

## CC1(C)SC2C(NC(=O)C(Oc3ccccc3)c3ccccc3)C(=O)N2C1C(=O)O (centres unmarked) [penicillin51]
[1]
  PPB (fb): 0.97

## CNS(=O)(=O)CCc1ccc2[nH]cc(C3CCN(C)CC3)c2c1 [Naratriptan]
[2]
  PPB (fb): 0.29

## CNCCCN1c2ccccc2CCc2ccccc21 [Desipramine]
[3]
  PPB (fb): 0.85

## CS(=O)(=O)c1ccc(C2=C(c3ccccc3)C(=O)OC2)cc1 [rofecoxib]
[1]
  PPB (fb): 0.87

## CCO [ethanol]
plasma
  PPB (fb): 0

## O=C(CCCN1CC=C(n2c(=O)[nH]c3ccccc32)CC1)c1ccc(F)cc1 [droperidol]
[1]
  PPB (fb): 0.95

## COC(CC(=O)NC1C(=O)N2C1SC(C)(C)C2C(=O)O)c1ccc(Cl)s1 (centres unmarked) [penicillin75]
[2]
  PPB (fb): 0.84

## CCN(CC)CCNC(=O)c1ccc(N)cc1 [Procainamide]
[3]
  PPB (fb): 0.16

## CCCC(=O)N1CCCN(c2nc(N)c3cc(OC)c(OC)cc3n2)CC1 [Bunazosin]
[2]
  PPB (fb): 0.95

## CC[C@]1(O)C[C@H]2CN(CCc3c([nH]c4ccccc34)[C@@](C(=O)OC)(c3cc4c(cc3OC)N(C=O)[C@H]3[C@@](O)(C(=O)OC)[C@H](OC(C)=O)[C@]5(CC)C=CCN6CC[C@]43[C@@H]65)C2)C1 [Vincristine]
[1]
  PPB (fb): 0.6

## lymecycline
plasma
  PPB (fb): 0.45

## CCOC(=O)[C@H](CCc1ccccc1)N[C@@H](C)C(=O)N1[C@H](C(=O)O)C[C@@H]2CCC[C@@H]21 [ramipril]
plasma
  PPB (fb): 0.61

## COc1ccc(Cc2nccc3cc(OC)c(OC)cc23)cc1OC [Papaverine]
plasma
  PPB (fb): 0.9

## COc1ccccc1Oc1c(NS(=O)(=O)c2ccc(C(C)(C)C)cc2)nc(-c2ncccn2)nc1OCCO [Bosentan]
[3]
  PPB (fb): 0.97

## CCCCC(OCC)C(=O)NC1C(=O)N2C1SC(C)(C)C2C(=O)O (centres unmarked) [penicillin10]
[1]
  PPB (fb): 0.74

## O=C(O)c1ccccc1Nc1cccc(C(F)(F)F)c1 [flufenamic acid]
[1]
  PPB (fb): 0.9

## C#C[C@]1(O)CC[C@H]2[C@@H]3CCC4=CCCC[C@@H]4[C@H]3CC[C@@]21C [lynestrenol]
[1]
  PPB (fb): 0.96

## CCCCCc1cc(O)c2c(c1)OC(C)(C)C1CCC(C)=CC21 (centres unmarked) [Tetrahydrocannabinol__ D9-]
plasma
  PPB (fb): 0.96

## COc1cc(/C=C/C(=O)O)ccc1O [ferulic acid]
[1]
  PPB (fb): 0.73

## CCCN[C@H]1CCc2nc(N)sc2C1 [pramipexole]
[1]
  PPB (fb): 0.15

## C#C[C@]1(O)CC[C@H]2[C@@H]3CCC4=CC(=O)CC[C@@H]4[C@H]3CC[C@@]21C [norethisterone]
[1]
  PPB (fb): 0.8

## C[C@@H]1CN([C@H]2CC[C@](C#N)(c3ccc(F)cc3)CC2)CC[C@]1(C(=O)O)c1ccccc1 [levocabastine]
[2]
  PPB (fb): 0.55

## OCC(CO)N[C@H]1C[C@](O)(CO)[C@@H](O)[C@H](O)[C@H]1O [voglibose]
[3]
  PPB (fb): 0.14

## C=CCN1C[C@H](C(=O)N(CCCN(C)C)C(=O)NCC)C[C@@H]2c3cccc4[nH]cc(c34)C[C@H]21 [cabergoline]
[2]
  PPB (fb): 0.41

## CCN(CC)C(=S)SSC(=S)N(CC)CC [disulfiram]
[2]
  PPB (fb): 0.5

## COc1ccc2[nH]c([S+]([O-])Cc3ncc(C)c(OC)c3C)nc2c1 (centres unmarked) [Omeprazole]
[2]
  PPB (fb): 0.96

## CCN(CC)C(=O)[C@@H]1C=C2c3cccc4[nH]cc(c34)C[C@H]2N(C)C1 [lysergide]
plasma
  PPB (fb): 0.9

## CO/N=C(\C(=O)N[C@@H]1C(=O)N2C(C(=O)OCOC(=O)C(C)(C)C)=C(/C=C\c3scnc3C)CS[C@H]12)c1csc(N)n1 [cefditoren-pivoxil]
[2]
  PPB (fb): 0.88

## Cc1cccc(Nc2ccncc2S(=O)(=O)NC(=O)NC(C)C)c1 [Torasemide]
[1]
  PPB (fb): 0.99

## O=C(O)c1cc(/N=N/c2ccc(O)c(C(=O)O)c2)ccc1O [olsalazine]
[1]
  PPB (fb): 0.99

## CCCCCCCC(=O)NC1C(=O)N2C1SC(C)(C)C2C(=O)O (centres unmarked) [penicillin3]
plasma
  PPB (fb): 0.92

## CNC(=C[N+](=O)[O-])NCCSCc1ccc(CN(C)C)o1 [Ranitidine]
[2]
  PPB (fb): 0.1

## CNC(=O)c1c(I)c(NC(C)=O)c(I)c(C(=O)O)c1I [Iothalamic acid (Iothalamate)]
[2]
  PPB (fb): 0.02

## CN1Cc2c(N)cccc2C(c2ccccc2)C1 (centres unmarked) [Nomifensine]
[3]
  PPB (fb): 0.63

## CN1C(=O)CC(c2ccccc2)C1=O (centres unmarked) [phensuximide]
[1]
  PPB (fb): 0.07

## c1ccc(CC2=NCCN2)cc1 [tolazoline]
[3]
  PPB (fb): 0.23

## COc1ccc(-c2nc3ccc(C4=NNC(=O)CC4C)cc3[nH]2)cc1 (centres unmarked) [Pimobendan]
[3]
  PPB (fb): 0.98

## C#C[C@]1(O)CC[C@H]2[C@@H]3CCc4cc(OS(=O)(=O)O)ccc4[C@H]3CC[C@@]21C [Ethinylestradiol-3-Sulfate]
plasma
  PPB (fb): 0.99

## Clc1ccc2c(c1)C(c1ccccc1)=NCc1nncn1-2 [estazolam]
plasma
  PPB (fb): 0.93

## CCCCC[C@H](O)/C=C/[C@H]1[C@H](O)CC(=O)[C@@H]1CCCCCCC(=O)O [alprostadil]
[2]
  PPB (fb): 0.92

## CO [methanol]
plasma
  PPB (fb): 0

## O=C(O)c1cn(-c2cccc(C(F)(F)F)c2)c2cc(N3CCNCC3)c(F)cc2c1=O [3b(m-CF3)]
[2]
  PPB (fb): 0.62

## CN(C)CCCN1c2ccccc2Sc2ccccc21 [Promazine]
[3]
  PPB (fb): 0.89

## O=C1CN=C(c2ccccc2Cl)c2cc([N+](=O)[O-])ccc2N1 [Clonazepam]
plasma
  PPB (fb): 0.85

## COc1ccc(CCN(C)CCCC(C#N)(c2cc(OC)c(OC)c(OC)c2)C(C)C)cc1OC (centres unmarked) [gallopamil]
[1]
  PPB (fb): 0.9

## COC1=CC(=O)C[C@@H](C)[C@]12Oc1c(Cl)c(OC)cc(OC)c1C2=O [griseofulvin]
[1]
  PPB (fb): 0.8

## CC(=O)O[C@H]1C(=O)[C@@]2(C)[C@H]([C@H](OC(=O)c3ccccc3)[C@]3(O)C[C@H](OC(=O)[C@H](O)[C@@H](NC(=O)c4ccccc4)c4ccccc4)C(C)=C1C3(C)C)[C@]1(OC(C)=O)CO[C@@H]1C[C@@H]2O [Paclitaxel]
[3]
  PPB (fb): 0.76

## [H]/N=C(/N)NS(=O)(=O)c1ccc(N)cc1 [sulfaguanidine]
[1]
  PPB (fb): 0.08

## CCOc1ccc(NC(C)=O)cc1 [Phenacetin]
[3]
  PPB (fb): 0.41

## O=c1[nH]c2ccccc2n1CCCN1CCC(n2c(=O)[nH]c3cc(Cl)ccc32)CC1 [Domperidone]
[3]
  PPB (fb): 0.92

## CCCc1nc(C)c2c(=O)[nH]c(-c3cc(S(=O)(=O)N4CCN(CC)CC4)ccc3OCC)nn12 [Vardenafil]
[1]
  PPB (fb): 0.95
